Results published in US11464750B2, “Anticancer agent and use thereof” (priority 2017, dated 2022).

What was measured:
Format in all cases: cell-based, human
cyclin D1 = assay: Western blotting, cyclin D1, JeKo-1 cells; settings: 0.5 μM; for abundance of cyclin D1: cytoplasm fraction
Protocol: (§1) Specifically, first, JeKo-1 cells were cultured for 0 (control), 12, 24, and 48 hours in the presence of 0.5 μM of 3EZ,20Ac-ingenol. In addition, Panc-1 cells were cultured for 0 (control), 12, 24, and 48 hours in the presence of 3 μM of 3EZ,20Ac-ingenol.
Subsequently, abundances of cyclin D1 in entire cell fractions, nuclear fractions, and cytoplasm fractions of the respective cells were analyzed by Western blotting.

p-GSK-3β (Ser^9) = assay: Western blotting, p-GSK-3β (Ser9), JeKo-1 cells; settings: 0.5 μM, entire cell
Protocol: as §1
Subsequently, abundances of GSK-3β and p-GSK-3β in the respective cells were analyzed by Western blotting using an anti-GSK-3β antibody (Cell Signaling Technology) and an anti-p-GSK-3β (Ser^9) antibody (Cell Signaling Technology). Furthermore, as a loading control, actin protein was detected using an anti-actin antibody (Sigma).

JeKo-1 cells = assay: MTT assay, JeKo-1 cells; settings: 48 hours
Protocol: JeKo-1 cells of a cell line derived from a human mantle cell lymphoma were seeded in a 96-well plate at 1×10^4 cells/well/100 μL. In addition, Panc-1 cells of a cell line derived from a human pancreatic cancer were seeded in a 96-well plate at 3×10^3 cells/well/100 μL.
Subsequently, 3EZ,20Ac-ingenol at final concentrations of 0 (control), 0.1, 0.5, 1, 5, and 10 μM was added the wells of the respective cells, and culturing was performed for 48 hours. Subsequently, cell proliferation was examined by MTT assay using a Cell Proliferation Kit I (Roche Applied Science).
First, JeKo-1 cells were seeded in a 96-well plate at 1×10^4 cells/well/100 μL. Subsequently, irinotecan at a final concentration of 0 (control), 0.5, 1, 5, 10, 20, and 30 μM was added to the wells of the cells and culturing was performed for 48 hours. In addition, Panc-1 cells were seeded in a 96-well plate at 3×10^3 cells/well/100 μL. Subsequently, irinotecan at a final concentration of 0 (control), 0.5, 1, 5, 10, 20, 30, and 50 μM was added to the wells of the cells and culturing was performed for 48 hours. Subsequently, cell proliferation was examined by MTT assay using a Cell Proliferation Kit I (Roche Applied Science).

p21 protein = assay: Western blotting, p21 protein, Panc-1 cells; settings: 3 μM
Protocol: Specifically, JeKo-1 cells were cultured for 0 (control), 12, 24 and 48 hours in the presence of 0.5 μM of 3EZ,20Ac-ingenol. In addition, Panc-1 cells were cultured for 0 (control), 12, 24, and 48 hours in the presence of 3 μM of 3EZ,20Ac-ingenol.
Subsequently, phosphorylation of H2AX in the respective cells was detected using an anti-phosphorylated-H2AX antibody (Millipore). In addition, p21 protein was detected using an anti-p21 antibody (Cell Signaling Technology). Furthermore, as a loading control, actin protein was detected using an anti-actin antibody (Sigma).

ATR protein = assay: Western blotting, ATR protein, BALL-1 cells; settings: 0.5 μM
Protocol: The effects of 3EZ,20Ac-ingenol treatment on expression of ATR were examined. First, BALL-1 cells were cultured in the presence of 3EZ,20Ac-ingenol at a final concentration of 0.5 μM for 12, 24, and 48 hours, and an expression level of ATR protein was analyzed by Western blotting using an anti-ATR antibody (Santa Cruz). Cells cultured in the absence of 3EZ,20Ac-ingenol were used as controls.
Subsequently, siRNA against ATR (“ON-TARGET Plus Human ATR (545) siRNA-SMARTpool,” GE Dharmacon) was introduced into BALL-1 cells at a final concentration of 50 nM and incubated for 48 hours. Subsequently, a cell medium was replaced with a new medium containing 3EZ,20Ac-ingenol at a final concentration of 0.5 μM and culturing was performed for 12, 24, and 48 hours, and an expression level of ATR protein was analyzed by Western blotting using an anti-ATR antibody (Santa Cruz).
Cells into which control siRNA (“ON-TARGET Plus Nontargeting pool,” GE Dharmacon) was introduced and which were then cultured in the absence of 3EZ,20Ac-ingenol were used as controls.

PTEN protein = assay: Western blotting, PTEN protein, JeKo-1 cells; settings: 0.5 μM
Protocol: as §1
Subsequently, abundances of PTEN protein in entire cell fractions, nuclear fractions, and cytoplasm fractions of the respective cells were analyzed by Western blotting using an anti-PTEN antibody (Santa Cruz). Furthermore, as a loading control, actin protein was detected using an anti-actin antibody (Sigma).

Akt protein [1] = assay: Western blotting, total amount of Akt, Panc-1 cells; settings: 3 μM
Protocol: as §1
(§2) Subsequently, by Western blotting using an anti-Akt antibody (Cell Signaling Technology) and an anti-p-Akt (Ser^473) antibody (Cell Signaling Technology), abundances of total amounts of Akt protein and p-Akt in the entire cell fractions, nuclear fractions, and cytoplasm fractions of the respective cells were analyzed. Furthermore, as a loading control, actin protein was detected using an anti-actin antibody (Sigma).

Akt protein [2] = assay: Western blotting, total amount of Akt, JeKo-1 cells; settings: 0.5 μM, entire cell fraction
Protocol: as §1, §2

TKG0377 cells = assay: Cell Death Detection ELISA, TKG0377; settings: 0.5 μM, 72 hours
Protocol: The induction of apoptosis by 3EZ,20Ac-ingenol treatment was examined by detecting histone-binding DNA fragmentation in the cytoplasm using a Cell Death Detection ELISA kit (Roche Applied Science).
Specifically, BALL-1 cells, TKG0210 cells, and TKG0377 cells were inserted into tubes at 5×10^4 cells/well/200 μL, and incubated for 6, 12, 24, 48, and 72 hours in the presence of 3EZ,20Ac-ingenol at a final concentration of 0.5 μM. Subsequently, the respective cells were lysed in a lysis buffer. Subsequently, the supernatant of cell debris of the respective cells was collected and transferred to an ELISA plate, and an absorbance at a wavelength of 405 nm was measured to measure the induction of apoptosis.

## CCCCC/C=C\C=C\C(=O)O[C@H]1C(C)=C[C@]23C(=O)[C@@H](C=C(COC(C)=O)[C@@H](O)[C@]12O)[C@H]1[C@@H](C[C@H]3C)C1(C)C [3EZ,20Ac-ingenol, 3-O-(2′E,4′Z-decadienoyl)-20-O-acetylingenol]
Cyclin D1; 12 to 48 hours
  abundance of cyclin D1: an increase in abundance of cyclin D1 was recognized
Cyclin D1; thereafter
  abundance of cyclin D1: a decrease was recognized thereafter
Cyclin D1; entire cell fraction, 12 to 48 hours
  expression level of cyclin D1: a decrease in expression level of cyclin D1 was observed
Cyclin D1; nuclear fraction, 12 to 48 hours
  expression level of cyclin D1: a slight decrease in expression level of cyclin D1 was observed
p-GSK-3β (Ser^9)
  p-GSK-3β (an inactive type): a decrease in p-GSK-3β (an inactive type) was observed
JeKo-1 cells; 1 to 10 μM of 3EZ,20Ac-ingenol
  proliferation inhibition of JeKo-1 cells: grown cells were almost eliminated
JeKo-1 cells; MTT assay, read-out: IC50 with respect to the JeKo-1 cells
  IC50: 500 nM
p21 protein; 12 hours after treatment
  expression of p21 protein: induction of a high expression level of p21 protein was observed
p21 protein; 48 hours after treatment
  expression of p21 protein: a rapid decrease in p21 protein was recognized
ATR protein; cells with siRNA against ATR introduced, 12, 24, 48 hours
  expression of ATR: an increase in ATR expression was not recognized
ATR protein; from 12 hours until 48 hours
  expression of ATR: the expression of ATR increased
PTEN protein; cytoplasm fraction, 12 hours to 24 hours
  abundance of PTEN protein: an increase in abundance of PTEN protein in the cytoplasm fraction was observed
PTEN protein; cytoplasm fraction, 48 hours
  abundance of PTEN protein: a decrease in abundance of PTEN protein was observed
PTEN protein; entire cell fraction, 12 hours until 48 hours
  abundance of PTEN protein: an abundance of PTEN protein increased
PTEN protein; nuclear fraction, 12 hours to 24 hours
  abundance of PTEN protein: an increase in abundance of PTEN protein in the nuclear fraction was observed
Akt protein [1]; entire cell fraction, 12 hours and 24 hours
  abundance of total amount of Akt: a temporary increase in abundances of both p-Akt and total amount of Akt was recognized
Akt protein [1]; entire cell fraction, 48 hours
  abundance of total amount of Akt: a decrease was observed again
Akt protein [1]; nuclear fraction and cytoplasm fraction, 12 to 24 hours
  abundance of total amount of Akt: an increase in abundance of both p-Akt and total amount of Akt was recognized
Akt protein [1]; nuclear fraction and cytoplasm fraction, 48 hours
  abundance of total amount of Akt: a decrease was observed 48 hours after the treatment
Akt protein [2]
  abundance of a total amount of Akt: almost no change was observed
TKG0377 cells
  amount of fragmented DNA (apoptosis): almost no fragmented DNA was detected
